Holding throughout (format): cell-based
Experiment [1] addresses N-type calcium channel subunits (α1B, α2δ, and β3a) (Homo sapiens, UniProt Q00975). As to the kind of experiment: Block of Cav2.2 channel, whole cell voltage clamp, manual and PatchXpress. As to conditions: Table 5; table follows Assay Example 3 (whole cell voltage clamp / PatchXpress); assay not given. The procedure, abridged: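 Percent block taken as current amplitude ratio with versus without compound, applied in rising doses; IC50 fitted where one cell received multiple doses. Protocol: 50 ms pulses to +20 mV at 0.067 Hz from […] or −90 mV holding; P/n leak subtraction, no junction-potential correction; manual and PatchXpress recordings.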

Experiment [2] deals with human α1H T-type channels (Homo sapiens, UniProt O95180). As to the kind of experiment: T-type calcium channel block, whole cell patch clamp, α1H. As to conditions: HEK cells stably expressing human α1H; mainly non-inactivated protocol; values above 10,000 nM represented as 10000. The gist of the method: (§1)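 Read-out: current block in whole-cell patch clamp of HEK 293 cells stably expressing human α1G or α1H subunits. Compounds were perfused locally in external solution (0.1-0.01% DMSO) under resting and inactivating voltage protocols.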

The target of experiment [3] is human α1G T-type channels (Homo sapiens, UniProt O43497). As to the kind of experiment: T-type calcium channel block, whole cell patch clamp, α1G. As to conditions: HEK cells stably expressing human α1G; mainly non-inactivated protocol; values above 10,000 nM represented as 10000. The procedure, abridged:
as §1

Chain of N-type calcium channel subunits (α1B, α2δ, and β3a) (Q00975 whole entry): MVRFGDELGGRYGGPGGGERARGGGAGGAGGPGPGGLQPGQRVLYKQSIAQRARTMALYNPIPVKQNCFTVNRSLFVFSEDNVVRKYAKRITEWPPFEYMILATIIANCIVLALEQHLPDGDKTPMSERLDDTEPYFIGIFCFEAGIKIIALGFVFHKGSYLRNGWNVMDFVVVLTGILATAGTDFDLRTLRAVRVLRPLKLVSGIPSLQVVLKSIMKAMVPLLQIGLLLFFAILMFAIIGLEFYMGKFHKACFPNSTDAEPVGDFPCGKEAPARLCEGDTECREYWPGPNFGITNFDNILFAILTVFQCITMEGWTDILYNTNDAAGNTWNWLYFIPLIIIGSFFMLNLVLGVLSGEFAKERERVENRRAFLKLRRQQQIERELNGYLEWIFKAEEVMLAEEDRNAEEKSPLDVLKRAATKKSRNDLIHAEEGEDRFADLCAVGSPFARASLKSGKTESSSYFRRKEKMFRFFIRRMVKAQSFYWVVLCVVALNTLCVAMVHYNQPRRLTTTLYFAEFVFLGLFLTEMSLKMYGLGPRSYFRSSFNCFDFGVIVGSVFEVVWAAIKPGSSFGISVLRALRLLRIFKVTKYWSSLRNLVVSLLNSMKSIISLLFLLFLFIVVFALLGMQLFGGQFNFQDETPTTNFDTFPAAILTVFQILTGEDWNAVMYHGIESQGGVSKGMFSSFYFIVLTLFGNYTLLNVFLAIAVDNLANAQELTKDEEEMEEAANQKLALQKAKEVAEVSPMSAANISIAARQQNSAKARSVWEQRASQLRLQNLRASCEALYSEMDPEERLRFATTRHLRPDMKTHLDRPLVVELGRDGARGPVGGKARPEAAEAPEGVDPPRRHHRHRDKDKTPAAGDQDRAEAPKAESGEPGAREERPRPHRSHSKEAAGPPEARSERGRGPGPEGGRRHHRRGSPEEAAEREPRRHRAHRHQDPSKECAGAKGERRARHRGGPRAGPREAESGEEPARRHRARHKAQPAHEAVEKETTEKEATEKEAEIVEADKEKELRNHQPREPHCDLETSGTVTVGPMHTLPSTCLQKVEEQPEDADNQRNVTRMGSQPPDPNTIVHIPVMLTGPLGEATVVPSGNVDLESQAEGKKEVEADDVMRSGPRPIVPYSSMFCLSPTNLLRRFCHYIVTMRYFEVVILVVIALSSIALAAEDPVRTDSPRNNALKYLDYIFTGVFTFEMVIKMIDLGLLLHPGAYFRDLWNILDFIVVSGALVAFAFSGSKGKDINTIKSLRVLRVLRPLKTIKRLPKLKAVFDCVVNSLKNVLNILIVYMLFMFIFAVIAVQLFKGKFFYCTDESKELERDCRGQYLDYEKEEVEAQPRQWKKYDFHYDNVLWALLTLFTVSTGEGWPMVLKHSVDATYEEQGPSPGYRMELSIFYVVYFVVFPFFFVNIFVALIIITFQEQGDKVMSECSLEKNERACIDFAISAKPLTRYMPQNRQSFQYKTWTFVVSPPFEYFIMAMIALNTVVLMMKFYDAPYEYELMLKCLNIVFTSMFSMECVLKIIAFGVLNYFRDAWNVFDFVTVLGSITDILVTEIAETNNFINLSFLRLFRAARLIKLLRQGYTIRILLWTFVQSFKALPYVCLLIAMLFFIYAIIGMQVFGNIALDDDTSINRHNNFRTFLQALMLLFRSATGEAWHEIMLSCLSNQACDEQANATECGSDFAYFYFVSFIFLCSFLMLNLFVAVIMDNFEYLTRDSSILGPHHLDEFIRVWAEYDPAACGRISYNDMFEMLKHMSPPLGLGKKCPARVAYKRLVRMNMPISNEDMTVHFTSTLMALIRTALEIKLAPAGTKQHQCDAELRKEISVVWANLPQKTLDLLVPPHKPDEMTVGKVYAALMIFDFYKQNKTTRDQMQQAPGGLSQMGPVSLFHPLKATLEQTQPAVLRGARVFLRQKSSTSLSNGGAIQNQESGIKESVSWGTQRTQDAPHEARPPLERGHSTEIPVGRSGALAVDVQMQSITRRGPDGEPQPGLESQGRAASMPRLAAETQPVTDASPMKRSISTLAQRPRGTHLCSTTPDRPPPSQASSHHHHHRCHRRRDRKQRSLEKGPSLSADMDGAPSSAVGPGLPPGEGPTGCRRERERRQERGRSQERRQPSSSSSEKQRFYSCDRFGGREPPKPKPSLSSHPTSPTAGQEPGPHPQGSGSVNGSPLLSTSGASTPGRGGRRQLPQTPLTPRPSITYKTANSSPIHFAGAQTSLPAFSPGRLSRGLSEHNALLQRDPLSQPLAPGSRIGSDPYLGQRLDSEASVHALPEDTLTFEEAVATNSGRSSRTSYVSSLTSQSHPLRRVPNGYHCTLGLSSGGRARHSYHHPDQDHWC
Chain of N-type calcium channel subunits (α1B, α2δ, and β3a) (P54289 25-1103 partner): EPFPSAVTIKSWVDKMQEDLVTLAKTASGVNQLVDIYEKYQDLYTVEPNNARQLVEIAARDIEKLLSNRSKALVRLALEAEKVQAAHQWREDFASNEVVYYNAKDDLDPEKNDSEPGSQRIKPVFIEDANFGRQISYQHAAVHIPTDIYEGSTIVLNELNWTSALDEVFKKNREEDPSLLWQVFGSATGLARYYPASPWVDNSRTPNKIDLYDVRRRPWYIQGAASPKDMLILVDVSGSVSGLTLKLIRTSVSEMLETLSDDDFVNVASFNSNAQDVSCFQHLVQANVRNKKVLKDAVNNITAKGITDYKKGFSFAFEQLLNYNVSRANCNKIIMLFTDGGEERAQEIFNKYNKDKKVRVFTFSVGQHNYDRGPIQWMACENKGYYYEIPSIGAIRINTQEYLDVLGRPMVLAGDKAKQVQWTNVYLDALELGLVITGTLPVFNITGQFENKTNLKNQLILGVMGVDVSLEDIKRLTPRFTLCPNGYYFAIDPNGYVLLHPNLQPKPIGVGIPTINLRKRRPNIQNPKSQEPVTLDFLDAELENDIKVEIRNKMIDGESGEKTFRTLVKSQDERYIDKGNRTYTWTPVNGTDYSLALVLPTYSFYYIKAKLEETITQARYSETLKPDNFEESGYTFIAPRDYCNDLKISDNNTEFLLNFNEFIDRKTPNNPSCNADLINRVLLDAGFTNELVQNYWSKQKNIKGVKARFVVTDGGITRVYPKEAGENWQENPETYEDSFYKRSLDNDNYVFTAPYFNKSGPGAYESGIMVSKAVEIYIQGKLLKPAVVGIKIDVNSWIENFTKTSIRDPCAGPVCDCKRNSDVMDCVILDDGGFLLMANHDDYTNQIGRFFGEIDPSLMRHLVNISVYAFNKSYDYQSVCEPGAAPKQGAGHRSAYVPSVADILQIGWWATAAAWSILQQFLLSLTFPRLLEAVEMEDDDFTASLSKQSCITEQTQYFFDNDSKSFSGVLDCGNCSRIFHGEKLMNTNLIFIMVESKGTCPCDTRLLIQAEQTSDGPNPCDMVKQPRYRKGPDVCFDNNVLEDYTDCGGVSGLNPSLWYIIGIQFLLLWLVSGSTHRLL
Chain of N-type calcium channel subunits (α1B, α2δ, and β3a) (P54284 whole entry partner): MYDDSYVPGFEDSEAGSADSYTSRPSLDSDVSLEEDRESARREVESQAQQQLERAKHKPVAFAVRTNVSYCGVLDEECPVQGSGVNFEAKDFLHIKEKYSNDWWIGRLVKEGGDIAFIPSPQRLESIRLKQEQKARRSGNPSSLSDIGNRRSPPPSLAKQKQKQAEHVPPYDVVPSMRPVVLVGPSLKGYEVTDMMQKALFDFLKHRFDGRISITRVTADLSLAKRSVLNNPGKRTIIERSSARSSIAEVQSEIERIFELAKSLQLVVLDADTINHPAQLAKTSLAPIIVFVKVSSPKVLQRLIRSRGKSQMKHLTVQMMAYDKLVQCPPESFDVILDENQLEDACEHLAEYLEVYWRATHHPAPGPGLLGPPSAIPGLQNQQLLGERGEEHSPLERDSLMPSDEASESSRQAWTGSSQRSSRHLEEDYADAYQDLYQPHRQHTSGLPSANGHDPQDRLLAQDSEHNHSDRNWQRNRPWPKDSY

`CN(C(=O)CN[C@H]1CC[C@@H](S(=O)(=O)c2cccc(C(F)(F)F)c2)CC1)C(C)(C)C` [Compound 50, N-tert-butyl-N-methyl-2-((1S,4S)-4-(3-(trifluoromethyl)phenylsulfonyl)cyclohexylamino)acetamide]: the values for the IC50 in experiment [1], in experiment [2] and in experiment [3] were 90 nM, over 10000 nM and over 10000 nM, respectively.

`CC1(NC(=O)c2ccc(C(F)(F)F)nc2S(C)(=O)=O)CCC(S(=O)(=O)c2cccc(C(F)(F)F)c2)CC1` (stereo not drawn) [Compound 316, N-(1-methyl-4-(3-(trifluoromethyl)phenylsulfonyl)cyclohexyl)-2-(methylsulfonyl)-6-(trifluoromethyl)nicotinamide]: the IC50 in experiment [1] was determined as 3120 nM; in experiment [2] it was 2910 nM; in experiment [3], 3990 nM.

On to `O=C(N[C@H]1CC[C@@](F)(S(=O)(=O)c2cc(F)cc(C(F)(F)F)c2)CC1)c1ccc(F)c(Cl)c1` [Compound 329, 3-chloro-4-fluoro-N-((1S,4S)-4-fluoro-4-(3-fluoro-5-(trifluoromethyl)phenylsulfonyl)cyclohexyl) benzamide], for which the IC50 in experiment [1] is 350 nM; in experiment [2], over 10000 nM; in experiment [3], over 10000 nM.

For the compound `O=C(N[C@H]1CC[C@@](F)(S(=O)(=O)c2cccc(C(F)(F)F)c2)CC1)c1ccc(Cl)cc1Cl` [Compound 270, 2,4-dichloro-N-((1S,4S)-4-fluoro-4-(3-(trifluoromethyl)phenylsulfonyl)cyclohexyl) benzamide], the IC50 in experiment [1] came to 210 nM; in experiment [2], 3580 nM; in experiment [3] it was 2540 nM.

In the case of “N-tert-butyl-2-((1S,4S)-4-((3- (trifluoromethyl)phenylsulfonyl) methyl)cyclohexylamino)acetamide [Compound 144]”, the IC50 in experiment [1] is 1250 nM; in experiment [2] it was 670 nM; in experiment [3], 1350 nM.

For `Cn1nc(C(F)(F)F)cc1C(=O)NC[C@H]1C[C@H](S(=O)(=O)c2cccc(C(F)(F)F)c2)C1` [Compound 355, 1-methyl-3-(trifluoromethyl)-N-(((1R,3R)-3-(3-(trifluoromethyl)phenylsulfonyl)cyclobutyl)methyl)-1H-pyrazole-5-carboxamide], the IC50 in experiment [1] was 190 nM; in experiment [2], 740 nM; in experiment [3], 1430 nM.

`CC1(S(=O)(=O)c2cccc(C(F)(F)F)c2)CCC(NC(=O)c2ccc(C(F)(F)F)nc2)CC1` (stereo not drawn) [Compound 1, N-(4-methyl-4-(3-(trifluoromethyl)phenylsulfonyl)cyclohexyl)-6-(trifluoromethyl) nicotinamide]: the IC50 in experiment [1] was 1030 nM; in experiment [2], 7400 nM; in experiment [3] it was over 10000 nM.

Take `O=C(NC[C@H]1C[C@H](S(=O)(=O)c2cccc(C(F)(F)F)c2)C1)c1ccc(Cl)c(Cl)c1` [Compound 369, 3,4-dichloro-N-(((1R,3R)-3-(3-(trifluoromethyl)phenylsulfonyl)cyclobutyl)methyl)benzamide]: the IC50 is 160 nM in experiment [1], over 10000 nM in experiment [2] and over 10000 nM in experiment [3].

`O=C(NC[C@H]1C[C@H](S(=O)(=O)c2cccc(C(F)(F)F)c2)C1)c1ccc(Cl)c(OC(F)(F)F)c1` [Compound 366, 4-chloro-3-(trifluoromethoxy)-N-(((1R,3R)-3-(3-(trifluoromethyl)phenylsulfonyl)cyclobutyl)methyl)benzamide]: the IC50 in experiment [1] was 190 nM; in experiment [2], over 10000 nM; in experiment [3], over 10000 nM.

Regarding `Cn1nc(C(F)(F)F)cc1C(=O)NC[C@H]1CC[C@@H](S(=O)(=O)c2cccc(C(F)(F)F)c2)CC1` [Compound 32, 1-methyl-3-(trifluoromethyl)-N-(((1S,4S)-4-(3-(trifluoromethyl)phenylsulfonyl)cyclohexyl)methyl)-1H-pyrazole-5-carboxamide], the results for the IC50 in experiment [1], in experiment [2] and in experiment [3] were 440 nM, 2690 nM and 500 nM, respectively.

For `Cc1noc(C)c1S(=O)(=O)NC[C@H]1C[C@H](S(=O)(=O)c2cccc(C(F)(F)F)c2)C1` [Compound 422, 3,5-dimethyl-N-(((1R,3R)-3-(3-(trifluoromethyl)phenylsulfonyl)cyclobutyl)methyl)isoxazole-4-sulfonamide], the IC50 in experiment [1] worked out at 2670 nM; in experiment [2] it was 1390 nM; in experiment [3], 2250 nM.

In the case of `O=C(N[C@H]1CC[C@H](CS(=O)(=O)c2cccc(C(F)(F)F)c2)CC1)c1ccc(F)c(C(F)(F)F)c1` [Compound 99, 4-fluoro-3-(trifluoromethyl)-N-((1R,4R)-4-((3-(trifluoromethyl)phenylsulfonyl)methyl)cyclohexyl)benzamide], the figures for the IC50 in experiment [1], in experiment [2] and in experiment [3] were 3750 nM, over 10000 nM and over 10000 nM, respectively.

For the compound `O=C(N[C@H]1CC[C@@](F)(S(=O)(=O)c2cccc(C(F)(F)F)c2)CC1)c1cc2cnccc2nc1C(F)(F)F` [Compound 266, N-((1S,4S)-4-fluoro-4-(3-(trifluoromethyl)phenylsulfonyl)cyclohexyl)-2-(trifluoromethyl)-1,6-naphthyridine-3-carbosamide], the IC50 in experiment [1] came to 2440 nM; in experiment [2], 5560 nM; in experiment [3] it was 3670 nM.

In the case of `CC(C)S(=O)(=O)c1cc(C(F)(F)F)cnc1C(=O)N[C@H]1CC[C@@](F)(S(=O)(=O)c2cccc(C(F)(F)F)c2)CC1` [Compound 281, N-((1S,4S)-4-fluoro-4-(3-(trifluoromethyl)phenylsulfonyl)cyclohexyl)-3-(isopropylsulfonyl)-5-(trifluoromethyl)picolinamide], the IC50 in experiment [1] was determined as 30 nM; in experiment [2], 1460 nM; in experiment [3], 8530 nM.

`CC(C)(C)NC(=O)CN[C@H]1CC[C@@](F)(S(=O)(=O)c2cccc(C(F)(F)F)c2)CC1` [Compound 27, N-tert-butyl-2-((1S,4S)-4-fluoro-4-(3-(trifluoromethyl)phenylsulfonyl)cyclohexylamino)acetamide]: the values for the IC50 in experiment [1], in experiment [2] and in experiment [3] were 250 nM, 720 nM and 760 nM, respectively.

As to `O=C(N[C@H]1CC[C@@H](CS(=O)(=O)c2cccc(C(F)(F)F)c2)CC1)c1ccc(C(F)(F)F)cn1` [Compound 143, 5-(trifluoromethyl)-N-((1S,4S)-4-((3-(trifluoromethyl)phenylsulfonyl)methyl)cyclohexyl)picolinamide], the figures for the IC50 in experiment [1], in experiment [2] and in experiment [3] were 950 nM, 6750 nM and over 10000 nM, respectively.

As to `CC(C)(C)S(=O)(=O)c1ccsc1C(=O)N[C@H]1CC[C@@H](S(=O)(=O)c2cccc(C(F)(F)F)c2)CC1` [Compound 204, 3-(tert-butylsulfonyl)-N-((1S,4S)-4-(3-(trifluoromethyl)phenylsulfonyl)cyclohexyl)thiophene-2-carboxamide], the IC50 in experiment [1] was 210 nM; in experiment [2], 6460 nM; in experiment [3], 3550 nM.

With `O=C1c2ccc(C(F)(F)F)nc2CN1[C@H]1CC[C@@](F)(S(=O)(=O)c2cccc(C(F)(F)F)c2)CC1` [Compound 290, 6-((1S,4S)-4-f1uoro-4-(3-(trifluoromethyl)phenylsulfonyl)cyclohexyl)-2-(trifluoromethyl)-6,dihydro-5Hpyrrolo[3,4-b]pyridin-5-one], the IC50 in experiment [1] was 420 nM; in experiment [2], 570 nM; in experiment [3], 1180 nM.

The values are drawn from US20120245137A1 (Zalicus Pharmaceuticals Ltd., priority 2009, published 2012).
